Here are results for one substance from publication PMC12326976 (Antimicrobial Agents and Chemotherapy, 2025).

Bridge positions count the residues as written; N and C are the ends. Ends that are not written are not given here. I, II: the chains in the order shown.

The test system of assay [1] is NA. Description: ELISA binding assay, NA. More on the design: species or system influenza virus. Particulars: 4H30 1 µg coated, NA 100 ng, anti-His antibody, Fig. 2a. As to the method: (§1) Peptides (1.0 µg per well) were dissolved in H2O. Influenza HA, NA (Sino, Cat^# 11058-V07B), or LDLR (Sino, Cat^# 10231-H081-50, 100 ng) dissolved in PBS was coated onto ELISA plates, incubated at 4°C overnight, and blocked with BSA at 4°C overnight. HA or VP1 was added to wells for binding and then determined by incubation with goat anti-His-HRP (Invitrogen, Cat^# R93125, 1: 2,000) at 37°C for 30 min. The reaction was developed by adding 100 µL of the TMB single solution (Life Technologies, Cat^# 002023) for 15 min at 37°C and stopped with 50 µL of 1 M H2SO4. Readings were obtained in an ELISA plate reader (Victor 1420 Multilabel Counter; PerkinElmer) at 450 nm.

Assay [2] has as its system rhinovirus A1. The assay is described as follows: Anti-rhinovirus assay in cardiomyocytes (hIPSC-CMs). The format is cell-based. Particulars: 4H30 25 µg mL^−1; supernatants at 48 hpi; compared to DMEM- and P9RS-treated controls; Fig. 5d. An excerpt: Cardiomyocytes are generated from human-induced pluripotent stem cells (iPSCs) as we had previously published ([22], [23]). Initially, IMR90 iPSCs are maintained in 12-well plates pre-coated with Matrigel (Thermo Fisher Scientific, USA) using StemFlex Medium (Thermo Fisher Scientific, USA). Subsequently, differentiation into cardiomyocytes is induced with the STEMdiff Ventricular Cardiomyocyte Differentiation Kit (Stem Cell Technologies, USA). This involves the sequential addition of Supplement A from days 1 to 2, Supplement B from days 3 to 4, and Supplement C from days 5 to 8 to cardiomyocyte differentiation basal medium. From day 9 onward, cardiomyocytes are sustained in cardiomyocyte maintenance basal medium with supplement (Stem Cell Technologies, USA). Lactate purification of cardiomyocytes is performed on days 11 to 12. Standard immunofluorescence staining with α-actinin and electrophysiology analysis by the patch clamping technique was performed to confirm their cardiomyocyte phenotype. To infect the cells, Rhinovirus A1 (0.025 TCID50) was treated with or without peptide in the media for infection. […]
Fig 5 4H30 inhibited rhinovirus replication in nasal organoids and cardiomyocytes. […] Viral RNAs were measured on day 1, day 2, and day 3 post-infection. […] Viral RNAs in the cell supernatants were measured by RT-qPCR at the indicated time points. […]

The test system of assay [3] is neuraminidase activity of H1N1 virus. Description: Viral neuraminidase assay (NA-STAR). The format is biochemical, influenza H1N1 virus. Particulars: 4H30 50 and 12.5 µg mL^−1, 1 h, compared to zanamivir, Fig. S3. As to the method: Fig. S3. […] H1N1 virus was treated with MEM, zanamivir (5 μM and 1.25 μM), and 4H30 (50 μg mL^−1and 12.5 μg mL^−1) for 1 h. The neuraminidase activity was analysed using the Invitrogen NA-STAR INFLUENZA NIRD REAGENT (Cat^# 4374348). Data are presented as mean ± SD of indicated biological samples.

Assay [4] has as its system rhinovirus A1. The assay is described as follows: Anti-rhinovirus assay in nasal organoids. The format is cell-based. Particulars: 4H30 25 µg mL^−1; viral loads in supernatants at 24, 48 and 72 hpi; RT-qPCR; Fig. 5b. As to the method: Organoid culture was established according to previous studies ([28], [29]). When the cells differentiated into mature 2D airway organoids within 12–14 days, the 2D organoids were ready for antiviral experiments. Rhinovirus (5000 TCID50) was mixed with peptide (25 µg mL^−1) or without peptides in culture media for organoid infection. After 2 h infection, we removed the infectious media and added fresh media with or without peptides. The supernatants were collected at 2 hpi, 24 hpi, 48 hpi, and 72 hpi to measure the viral loads by RT-qPCR.
Fig 5 4H30 inhibited rhinovirus replication in nasal organoids and cardiomyocytes. (a) Rhinovirus A1 could not replicate efficiently in mice. Rhinovirus (1 × 10^7 TCID50) was intranasally inoculated to mice. Viral RNAs were measured on day 1, day 2, and day 3 post-infection. […] (c) Rhinovirus A1 (0.01 MOI) could effectively replicate in cardiomyocytes. […] Viral RNAs in the cell supernatants were measured by RT-qPCR at the indicated time points. Data are presented as mean ± SD of indicated biological samples.
Background: Quantitative PCR measures a nucleic acid by following its amplification.

In assay [5] the test system is A(H1N1)pdm09 virus. Also on record: species or system BALB/c mice. Particulars: mouse, in vivo.
The subject of assay [6] is H1N1 virus. The assay is described as follows: Viral attachment assay, H1N1 on MDCK cells. The format is cell-based, influenza H1N1 virus. As to the method:
Viruses (H1N1 or rhinovirus A1) were treated with DMEM, 4H30 (25 µg mL^−1), or an influenza neutralization antibody at room temperature for 30 min and then added to cells for attachment at 4°C for 1 h. After washing the unbound virus, the attached virus on cells was measured by RT-qPCR. At least two experiments with biological duplication samples were included for each treatment.
MDCK cells were treated by ChABC (Sigma, Cat^# C2905, 1 U mL^−1), Hase I–III (Sigma, Cat^# H3917, 100 mU mL^−1), and Hase II (Sigma, Cat^# H6515, 100 mU mL^−1) at 37°C for 2 h in the buffer according to the manufacturer’s instruction. After washing cells with PBS, MEM or 4H30 (25 µg mL^−1) was added to cells for 30 min incubation, and then cells were washed with PBS. H1N1 (MOI = 1.0) was added to cells for attachment at 4°C for 1 h. The unbound virus was washed with PBS. The concentration of the attached virus was measured by RT-qPCR.

For assay [7], the target named is Influenza HA (Influenza A virus, UniProt C3W5S1). Description: ELISA binding assay, HA. Particulars: 4H30 1 µg coated, HA 100 ng, anti-His antibody, Fig. 2a. As to the method:
as §1

Assay [8] has as its system rhinovirus A1. The format is cell-based.

Influenza HA, sequence (C3W5S1 entry or part of it, added parts left off): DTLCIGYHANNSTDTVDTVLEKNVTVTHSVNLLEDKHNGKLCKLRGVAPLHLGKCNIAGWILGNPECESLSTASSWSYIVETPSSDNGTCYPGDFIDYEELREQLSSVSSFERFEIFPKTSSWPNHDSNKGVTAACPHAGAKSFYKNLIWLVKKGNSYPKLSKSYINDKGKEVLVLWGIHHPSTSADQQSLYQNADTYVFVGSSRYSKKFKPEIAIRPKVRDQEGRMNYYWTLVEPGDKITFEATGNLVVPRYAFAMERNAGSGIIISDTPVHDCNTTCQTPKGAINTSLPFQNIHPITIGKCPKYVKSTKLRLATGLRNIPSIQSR

In the case of “I: GAICHPVFCPRRYKQIGTCGLPGTKCCKKPKK / II: GAICHPVFCPRRYKQIGTCGLPGTKCCKKPK / III: GAICHPVFCPRRYKQIGTCGLPGTKCCKKP / IV: GAICHPVFCPRRYKQIGTCGLPGTKCCKKP (amide I:31-IV:C, I:32-II:C, II:31-III:C; cysteines drawn unpaired) [4H30]”, in assay [1], the “binding to NA” value is given as “not effectively bound to NA”. In assay [2], the “rhinovirus replication in hIPSC-CMs” value is reported as “significantly inhibited viral replication in hIPSC-CMs”. Besides, the “effect on neuraminidase activity” value in assay [3] is recorded as “did not affect neuraminidase activity”. Besides, the “rhinovirus replication in nasal organoids” value in assay [4] is recorded as “significantly inhibited rhinovirus replication in nasal organoids”. Besides, the “survival of mice after lethal H1N1 challenge (protected mice)” value in assay [5] is 5/6. For the same substance, in assay [5] (0.5 mg/kg), the “body weight loss of H1N1-infected mice” value is recorded as “significantly reduced body weight loss” and the “viral loads in the lungs on day 2 post-infection” value was “significantly inhibited H1N1 viral replication in mouse lungs”. In addition, in assay [6] (4H30 25 µg mL^−1, attachment at 4°C, RT-qPCR, Fig. 1d), the “H1N1 attachment to MDCK cells” value was “increased the viral attachment to cells”. In assay [6] (MDCK cells treated with Hase and ChABC, 4H30 25 µg mL^−1, attachment at 4°C, Fig. 2d), the “4H30-induced increase in H1N1 attachment after removal of cellular GAGs” value is “significantly reduced when cells were treated with enzymes of Hase and ChABC”. The “binding to HA protein” value in assay [7] is “bound to HA protein”. In assay [8], the “RV-A1 replication, cells (1h-Pre) or virus (Pre-mix) treated before infection” value is given as “significantly inhibited viral replication when cells or viruses were treated with 4H30 before viral infection”; the “RV-A1 replication, cells treated after infection (1h-Post and 2h-Post)” value was “showed reduced antiviral activity when cells were treated after viral infection”; the “antiviral activity after treating rhinovirus and dilution” value is reported as “did not show antiviral activity against rhinovirus”; the “antiviral activity when added after virus attachment (4H30-Post)” value was “antiviral activity diminished when rhinovirus was attached to cells at 4 °C and was treated with 4H30 at 1 hpi”. Further, the “antiviral activity when present during viral infection (4H30-Pre)” value in assay [8] is recorded as “showed significant antiviral activity when treating virus during viral infection”.
